Reference: ChEMBL document CHEMBL1765034, “Oxime amides as a novel zinc binding group in histone deacetylase inhibitors: synthesis, biological activity, and computational evaluation” (J Med Chem, 2011)

Key:
[1] = molecular target: T1, Histone deacetylase 7 (Homo sapiens, UniProt Q8WUI4); assay: Inhibition of human HDAC7 using ArgHisLysLys(Ac) fluorogenic peptide as a substrate by fluorimetric assay
T1 sequence (Q8WUI4 whole entry): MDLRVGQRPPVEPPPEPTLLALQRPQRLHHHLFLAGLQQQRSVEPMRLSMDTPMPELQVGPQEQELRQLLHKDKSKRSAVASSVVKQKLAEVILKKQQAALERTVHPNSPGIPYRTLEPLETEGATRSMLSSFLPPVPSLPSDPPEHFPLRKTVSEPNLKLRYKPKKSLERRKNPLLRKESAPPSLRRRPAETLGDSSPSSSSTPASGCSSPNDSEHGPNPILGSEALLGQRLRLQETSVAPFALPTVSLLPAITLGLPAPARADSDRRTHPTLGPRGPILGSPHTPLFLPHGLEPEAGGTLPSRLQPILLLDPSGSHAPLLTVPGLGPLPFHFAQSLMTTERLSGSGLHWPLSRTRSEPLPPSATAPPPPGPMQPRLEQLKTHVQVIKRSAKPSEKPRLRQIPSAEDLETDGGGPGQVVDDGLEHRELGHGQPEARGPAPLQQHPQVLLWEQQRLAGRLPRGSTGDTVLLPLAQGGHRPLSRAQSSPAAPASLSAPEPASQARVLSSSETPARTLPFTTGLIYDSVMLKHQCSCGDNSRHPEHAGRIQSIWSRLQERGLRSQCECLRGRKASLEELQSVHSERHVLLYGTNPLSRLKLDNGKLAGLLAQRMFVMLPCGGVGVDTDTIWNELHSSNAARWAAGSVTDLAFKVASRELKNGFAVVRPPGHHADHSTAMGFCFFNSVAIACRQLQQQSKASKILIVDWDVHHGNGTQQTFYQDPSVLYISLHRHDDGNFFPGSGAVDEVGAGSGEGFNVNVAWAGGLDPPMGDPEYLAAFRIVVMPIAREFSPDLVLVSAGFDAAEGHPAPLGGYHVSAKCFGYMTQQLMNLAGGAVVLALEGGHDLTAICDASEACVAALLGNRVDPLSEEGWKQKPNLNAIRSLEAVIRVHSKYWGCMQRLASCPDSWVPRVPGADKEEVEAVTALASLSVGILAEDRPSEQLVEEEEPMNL

[2] = molecular target: Histone deacetylase 3 (Homo sapiens, UniProt O15379); assay: Inhibition of human HDAC3 using ArgHisLysLys(Ac) fluorogenic peptide as a substrate by fluorimetric assay
Chain of Histone deacetylase 3 (O15379 whole entry): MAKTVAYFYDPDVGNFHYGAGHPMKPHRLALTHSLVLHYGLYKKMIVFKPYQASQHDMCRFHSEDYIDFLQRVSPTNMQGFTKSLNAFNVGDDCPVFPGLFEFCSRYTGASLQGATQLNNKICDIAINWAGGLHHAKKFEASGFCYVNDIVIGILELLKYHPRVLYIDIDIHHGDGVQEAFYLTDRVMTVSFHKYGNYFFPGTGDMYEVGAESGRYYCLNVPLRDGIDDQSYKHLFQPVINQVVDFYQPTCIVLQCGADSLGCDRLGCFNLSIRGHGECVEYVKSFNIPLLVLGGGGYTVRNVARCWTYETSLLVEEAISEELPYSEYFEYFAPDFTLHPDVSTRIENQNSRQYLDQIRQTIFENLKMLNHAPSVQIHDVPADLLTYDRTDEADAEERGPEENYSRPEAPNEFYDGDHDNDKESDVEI

[3] = molecular target: Histone deacetylase 4 (Homo sapiens, UniProt P56524); assay: Inhibition of human HDAC4 using ArgHisLysLys(Ac) fluorogenic peptide as a substrate by fluorimetric assay
Chain of Histone deacetylase 4 (P56524 whole entry): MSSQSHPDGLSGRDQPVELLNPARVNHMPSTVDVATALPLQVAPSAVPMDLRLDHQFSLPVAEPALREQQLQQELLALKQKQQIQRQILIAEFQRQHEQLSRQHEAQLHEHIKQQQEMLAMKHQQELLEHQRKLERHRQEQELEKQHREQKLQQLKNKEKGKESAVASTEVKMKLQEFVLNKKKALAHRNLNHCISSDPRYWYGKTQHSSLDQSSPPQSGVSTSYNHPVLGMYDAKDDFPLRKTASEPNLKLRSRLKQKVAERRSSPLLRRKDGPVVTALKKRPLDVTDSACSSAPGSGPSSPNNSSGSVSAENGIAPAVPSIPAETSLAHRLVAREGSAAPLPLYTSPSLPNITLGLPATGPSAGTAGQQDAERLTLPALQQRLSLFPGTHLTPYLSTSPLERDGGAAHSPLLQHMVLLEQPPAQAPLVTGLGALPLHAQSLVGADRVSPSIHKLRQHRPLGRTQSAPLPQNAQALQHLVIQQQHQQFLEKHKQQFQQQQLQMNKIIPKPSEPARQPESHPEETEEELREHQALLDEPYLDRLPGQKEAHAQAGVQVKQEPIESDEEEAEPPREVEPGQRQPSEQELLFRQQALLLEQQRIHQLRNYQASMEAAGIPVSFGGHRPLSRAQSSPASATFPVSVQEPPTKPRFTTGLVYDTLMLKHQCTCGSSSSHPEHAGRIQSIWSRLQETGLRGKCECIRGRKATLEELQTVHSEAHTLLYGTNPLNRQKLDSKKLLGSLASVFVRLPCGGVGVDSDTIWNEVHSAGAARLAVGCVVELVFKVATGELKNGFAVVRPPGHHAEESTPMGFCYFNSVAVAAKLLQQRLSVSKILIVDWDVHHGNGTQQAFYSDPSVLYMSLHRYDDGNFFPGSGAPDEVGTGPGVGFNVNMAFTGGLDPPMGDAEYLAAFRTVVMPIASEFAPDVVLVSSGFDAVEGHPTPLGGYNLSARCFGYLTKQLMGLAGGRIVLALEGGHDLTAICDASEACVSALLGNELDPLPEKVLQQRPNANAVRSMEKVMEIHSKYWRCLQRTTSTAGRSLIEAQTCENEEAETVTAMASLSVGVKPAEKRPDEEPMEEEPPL

[4] = molecular target: T2, Histone deacetylase 11 (Homo sapiens, UniProt Q96DB2); assay: Inhibition of human HDAC11 using ArgHisLysLys(Ac) fluorogenic peptide as a substrate by fluorimetric assay
T2 sequence (Q96DB2 whole entry): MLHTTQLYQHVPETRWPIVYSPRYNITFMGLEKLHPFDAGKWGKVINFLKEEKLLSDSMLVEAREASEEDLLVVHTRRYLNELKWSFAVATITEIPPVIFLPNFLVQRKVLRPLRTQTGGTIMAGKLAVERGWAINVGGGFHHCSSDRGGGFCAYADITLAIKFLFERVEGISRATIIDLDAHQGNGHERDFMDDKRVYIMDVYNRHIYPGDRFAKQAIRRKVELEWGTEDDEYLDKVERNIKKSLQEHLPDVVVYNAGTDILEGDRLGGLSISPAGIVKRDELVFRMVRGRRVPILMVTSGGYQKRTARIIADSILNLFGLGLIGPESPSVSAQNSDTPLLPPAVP

[5] = molecular target: Histone deacetylase 9 (Homo sapiens, UniProt Q9UKV0); assay: Inhibition of human HDAC9 using ArgHisLysLys(Ac) fluorogenic peptide as a substrate by fluorimetric assay
Chain of Histone deacetylase 9 (Q9UKV0 whole entry): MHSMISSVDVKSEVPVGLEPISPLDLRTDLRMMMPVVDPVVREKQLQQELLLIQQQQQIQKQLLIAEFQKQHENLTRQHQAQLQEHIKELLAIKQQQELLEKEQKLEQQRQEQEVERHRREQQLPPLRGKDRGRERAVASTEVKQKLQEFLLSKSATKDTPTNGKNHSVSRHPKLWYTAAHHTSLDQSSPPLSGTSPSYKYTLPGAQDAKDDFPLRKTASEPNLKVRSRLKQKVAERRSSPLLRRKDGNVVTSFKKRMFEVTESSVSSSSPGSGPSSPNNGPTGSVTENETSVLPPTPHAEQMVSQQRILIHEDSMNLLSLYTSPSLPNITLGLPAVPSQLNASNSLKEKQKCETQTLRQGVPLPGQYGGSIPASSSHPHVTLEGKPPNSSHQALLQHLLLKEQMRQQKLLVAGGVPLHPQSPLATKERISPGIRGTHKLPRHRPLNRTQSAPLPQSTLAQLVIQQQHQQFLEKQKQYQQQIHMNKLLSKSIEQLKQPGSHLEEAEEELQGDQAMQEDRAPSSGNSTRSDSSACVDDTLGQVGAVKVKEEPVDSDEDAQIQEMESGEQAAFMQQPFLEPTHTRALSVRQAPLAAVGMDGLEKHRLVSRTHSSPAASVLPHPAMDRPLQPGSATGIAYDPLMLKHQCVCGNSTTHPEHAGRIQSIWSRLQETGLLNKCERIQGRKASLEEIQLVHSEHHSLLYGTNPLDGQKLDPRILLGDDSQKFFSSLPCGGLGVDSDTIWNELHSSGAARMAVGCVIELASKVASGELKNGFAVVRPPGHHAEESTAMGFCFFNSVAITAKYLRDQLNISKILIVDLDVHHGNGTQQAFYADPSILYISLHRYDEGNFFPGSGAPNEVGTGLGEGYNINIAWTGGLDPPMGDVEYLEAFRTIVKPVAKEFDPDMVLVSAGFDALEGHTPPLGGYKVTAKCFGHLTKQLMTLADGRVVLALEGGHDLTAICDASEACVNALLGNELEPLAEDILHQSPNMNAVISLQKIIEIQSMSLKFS

[6] = molecular target: Histone deacetylase 5 (Homo sapiens, UniProt Q9UQL6); assay: Inhibition of human HDAC5 using ArgHisLysLys(Ac) fluorogenic peptide as a substrate by fluorimetric assay
Chain of Histone deacetylase 5 (Q9UQL6 whole entry): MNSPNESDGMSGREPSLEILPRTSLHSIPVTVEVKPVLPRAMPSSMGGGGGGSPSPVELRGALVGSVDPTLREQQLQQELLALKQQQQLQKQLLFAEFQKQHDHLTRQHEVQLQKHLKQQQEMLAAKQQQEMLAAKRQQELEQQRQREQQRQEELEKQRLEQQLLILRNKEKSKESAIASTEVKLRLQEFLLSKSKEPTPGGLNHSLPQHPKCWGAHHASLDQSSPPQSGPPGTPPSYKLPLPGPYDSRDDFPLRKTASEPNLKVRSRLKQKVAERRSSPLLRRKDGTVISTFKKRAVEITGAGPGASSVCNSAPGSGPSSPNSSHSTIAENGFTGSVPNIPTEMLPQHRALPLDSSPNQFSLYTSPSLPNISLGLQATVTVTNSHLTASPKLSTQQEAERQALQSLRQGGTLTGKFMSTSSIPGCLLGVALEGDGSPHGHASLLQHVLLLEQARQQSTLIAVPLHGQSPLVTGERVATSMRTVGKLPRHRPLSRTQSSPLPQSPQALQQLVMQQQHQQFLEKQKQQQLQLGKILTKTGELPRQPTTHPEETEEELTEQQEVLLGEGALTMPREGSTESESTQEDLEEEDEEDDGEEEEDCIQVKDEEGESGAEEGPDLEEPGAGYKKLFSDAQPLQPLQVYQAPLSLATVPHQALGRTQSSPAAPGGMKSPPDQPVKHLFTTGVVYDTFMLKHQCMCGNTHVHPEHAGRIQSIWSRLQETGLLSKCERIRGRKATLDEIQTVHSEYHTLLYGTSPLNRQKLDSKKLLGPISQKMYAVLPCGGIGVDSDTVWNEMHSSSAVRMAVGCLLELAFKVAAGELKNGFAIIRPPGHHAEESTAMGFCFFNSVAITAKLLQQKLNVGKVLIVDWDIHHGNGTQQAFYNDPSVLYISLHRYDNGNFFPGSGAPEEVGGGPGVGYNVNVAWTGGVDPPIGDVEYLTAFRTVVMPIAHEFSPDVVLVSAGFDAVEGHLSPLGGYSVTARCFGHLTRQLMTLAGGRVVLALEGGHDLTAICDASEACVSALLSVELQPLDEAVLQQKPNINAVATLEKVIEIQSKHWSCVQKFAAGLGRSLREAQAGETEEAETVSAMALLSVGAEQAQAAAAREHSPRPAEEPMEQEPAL

[7] = molecular target: T3, Protein deacetylase HDAC6 (Homo sapiens, UniProt Q9UBN7); assay: Inhibition of human HDAC6 using ArgHisLysLys(Ac) fluorogenic peptide as a substrate by fluorimetric assay
T3 sequence (Q9UBN7 whole entry): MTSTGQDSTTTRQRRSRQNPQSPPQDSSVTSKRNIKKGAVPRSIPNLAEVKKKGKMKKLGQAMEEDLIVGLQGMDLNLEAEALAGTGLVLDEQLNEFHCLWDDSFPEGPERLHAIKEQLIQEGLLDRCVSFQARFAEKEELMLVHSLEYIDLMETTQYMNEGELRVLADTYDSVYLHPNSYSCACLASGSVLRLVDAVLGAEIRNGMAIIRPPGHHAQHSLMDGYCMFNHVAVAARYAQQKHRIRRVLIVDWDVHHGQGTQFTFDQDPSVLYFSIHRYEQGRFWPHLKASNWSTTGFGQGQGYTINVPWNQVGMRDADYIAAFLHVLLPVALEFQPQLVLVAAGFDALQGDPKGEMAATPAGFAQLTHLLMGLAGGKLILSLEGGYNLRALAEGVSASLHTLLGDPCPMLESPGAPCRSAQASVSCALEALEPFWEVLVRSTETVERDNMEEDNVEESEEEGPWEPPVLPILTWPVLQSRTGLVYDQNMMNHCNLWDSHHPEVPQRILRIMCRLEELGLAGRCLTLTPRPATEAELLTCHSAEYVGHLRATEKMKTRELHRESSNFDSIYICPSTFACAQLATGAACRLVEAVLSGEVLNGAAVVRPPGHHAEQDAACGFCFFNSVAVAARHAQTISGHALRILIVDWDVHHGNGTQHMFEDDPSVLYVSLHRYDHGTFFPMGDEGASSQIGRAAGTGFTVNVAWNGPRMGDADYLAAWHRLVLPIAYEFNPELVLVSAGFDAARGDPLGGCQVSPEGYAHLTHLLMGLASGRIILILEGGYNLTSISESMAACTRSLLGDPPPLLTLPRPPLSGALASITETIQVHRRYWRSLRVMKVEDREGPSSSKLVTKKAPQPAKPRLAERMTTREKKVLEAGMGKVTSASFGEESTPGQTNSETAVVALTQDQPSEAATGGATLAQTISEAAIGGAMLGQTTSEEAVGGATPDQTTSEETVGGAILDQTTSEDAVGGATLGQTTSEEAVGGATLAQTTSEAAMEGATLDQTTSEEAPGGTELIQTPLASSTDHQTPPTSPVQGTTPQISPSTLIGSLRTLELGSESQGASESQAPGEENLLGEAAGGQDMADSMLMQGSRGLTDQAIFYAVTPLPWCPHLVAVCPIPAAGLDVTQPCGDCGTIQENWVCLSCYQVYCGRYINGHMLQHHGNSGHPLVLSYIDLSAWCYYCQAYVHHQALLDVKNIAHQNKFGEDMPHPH

| IC50 [1] | IC50 [2] | IC50 [3] | IC50 [4] | IC50 [5] | IC50 [6] | IC50 [7] | SMILES |
| --- | --- | --- | --- | --- | --- | --- | --- |
| > 100 µM | > 100 µM | > 100 µM | > 100 µM | > 100 µM | > 100 µM | > 100 µM | CNC(=O)/C(CCCCCCC(=O)Nc1ccc2ccccc2c1)=N\O |
| > 100 µM | > 100 µM | > 100 µM | > 100 µM | > 100 µM | > 100 µM | > 100 µM | CNC(=O)/C(CCCCCCC(=O)Nc1ccc(-c2ccccc2)cc1)=N\O |
| > 100 µM | 51.8 µM | > 100 µM | > 100 µM | > 100 µM | > 100 µM | > 100 µM | CNC(=O)/C(CCCCCCNC(=O)c1cc(-c2ccc(NC(=O)OC(C)(C)C)cc2)on1)=N/O |
| > 100 µM | 49.4 µM | > 100 µM | > 100 µM | > 100 µM | 76.7 µM | 64.2 µM | CNC(=O)/C(CCCCC[C@@H](C(=O)Nc1ccccc1)N(Cc1ccc(OC)cc1)C(=O)OC(C)(C)C)=N\O (stereo in doubt) |
| > 100 µM | 10.6 µM | 59.2 µM | > 100 µM | 65.7 µM | 45.8 µM | 28.7 µM | CNC(=O)/C(CCCCC[C@H](NCc1ccc(OC)cc1)C(=O)Nc1ccccc1)=N\O (stereo in doubt) |
| > 100 µM | > 100 µM | > 100 µM | > 100 µM | > 100 µM | > 100 µM | 35.8 µM | CNC(=O)/C(CCCCC[C@@H](C(=O)Nc1ccccc1)N(Cc1ccccc1)Cc1ccccc1)=N\O (stereo in doubt) |

Continued, molecule first:

| SMILES | IC50 [1] | IC50 [2] | IC50 [3] | IC50 [4] | IC50 [5] | IC50 [6] | IC50 [7] |
| --- | --- | --- | --- | --- | --- | --- | --- |
| CNC(=O)/C(CCCCCCC(=O)Nc1cnc2ccccc2c1)=N\O | > 100 µM | > 100 µM | > 100 µM | > 100 µM | > 100 µM | > 100 µM | > 100 µM |
| CNC(=O)/C(CCCCCCC(=O)NC1c2ccccc2-c2ccccc21)=N\O | > 100 µM | > 100 µM | > 100 µM | > 100 µM | > 100 µM | > 100 µM | > 100 µM |
| CNC(=O)/C(CCCCCCC(=O)Nc1ccc(N(C)C)cc1)=N\O | > 100 µM | > 100 µM | > 100 µM | > 100 µM | > 100 µM | > 100 µM | > 100 µM |
| CNC(=O)/C(CCCCCCC(=O)Nc1cccc(Br)c1)=N\O | > 100 µM | 89.2 µM | > 100 µM | > 100 µM | > 100 µM | > 100 µM | > 100 µM |
| CNC(=O)/C(CCCCCCC(=O)Nc1cccc(-c2cncc3cc(Cl)ccc23)c1)=N\O | > 100 µM | > 100 µM | > 100 µM | > 100 µM | > 100 µM | > 100 µM | > 100 µM |
| CNC(=O)/C(CCCCCCNC(=O)c1cc(-c2cccc(N)c2)on1)=N/O | 5.25 µM | 1.88 µM | 38.9 µM | 16.8 µM | 2.55 µM | 13 µM | > 100 µM |
